Experiments:
Test in all cases: Protein kinase selectivity panel
Type in all cases: biochemical
Conditions in all cases: 1.0 μM compound, 10 μM ATP
ALK(h) = ALK(h) (Homo sapiens, UniProt Q9UM73)
Summary of the method: (§1)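 Kinase, its appropriate substrate, and 10 μM ATP were combined with 1.0 μM compound. Phosphorylation was then allowed to proceed within the time-linear range and measured.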

Abl(h) = Abl(h) (Homo sapiens, UniProt P00519)
Summary of the method: as §1

BTK(h) = BTK(h) (Homo sapiens, UniProt Q06187)
Summary of the method: as §1

Blk(m) = Blk(m) (Mus musculus, UniProt P16277)
Summary of the method: as §1

CDK5/p35(h) = CDK5/p35(h) (Homo sapiens, UniProt Q00535)
Summary of the method: as §1

CDK7/cyclinH/MAT1(h) = CDK7/cyclinH/MAT1(h) (Homo sapiens, UniProt P50613)
Summary of the method: as §1

CHK2(h) = CHK2(h) (Homo sapiens, UniProt O96017)
Sequence of CHK2(h) (O96017 whole entry): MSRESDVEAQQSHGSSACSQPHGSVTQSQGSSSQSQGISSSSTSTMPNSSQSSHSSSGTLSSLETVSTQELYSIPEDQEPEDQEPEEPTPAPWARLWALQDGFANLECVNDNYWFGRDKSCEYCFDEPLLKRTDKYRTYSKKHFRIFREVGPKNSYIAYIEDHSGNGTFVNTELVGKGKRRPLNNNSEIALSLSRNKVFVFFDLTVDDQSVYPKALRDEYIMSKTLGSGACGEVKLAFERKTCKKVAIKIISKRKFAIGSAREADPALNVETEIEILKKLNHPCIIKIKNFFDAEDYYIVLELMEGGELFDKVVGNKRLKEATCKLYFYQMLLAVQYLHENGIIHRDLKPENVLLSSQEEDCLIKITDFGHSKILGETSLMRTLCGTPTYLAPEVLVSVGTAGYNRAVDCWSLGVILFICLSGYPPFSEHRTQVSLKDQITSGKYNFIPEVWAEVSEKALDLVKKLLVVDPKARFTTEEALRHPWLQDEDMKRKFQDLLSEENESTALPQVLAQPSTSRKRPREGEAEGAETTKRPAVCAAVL
Summary of the method: as §1

Fyn(h) = Fyn(h) (Homo sapiens, UniProt P06241)
Summary of the method: as §1

GSK3α(h) = GSK3α(h) (Homo sapiens, UniProt P49840)
Sequence of GSK3α(h) (P49840 whole entry): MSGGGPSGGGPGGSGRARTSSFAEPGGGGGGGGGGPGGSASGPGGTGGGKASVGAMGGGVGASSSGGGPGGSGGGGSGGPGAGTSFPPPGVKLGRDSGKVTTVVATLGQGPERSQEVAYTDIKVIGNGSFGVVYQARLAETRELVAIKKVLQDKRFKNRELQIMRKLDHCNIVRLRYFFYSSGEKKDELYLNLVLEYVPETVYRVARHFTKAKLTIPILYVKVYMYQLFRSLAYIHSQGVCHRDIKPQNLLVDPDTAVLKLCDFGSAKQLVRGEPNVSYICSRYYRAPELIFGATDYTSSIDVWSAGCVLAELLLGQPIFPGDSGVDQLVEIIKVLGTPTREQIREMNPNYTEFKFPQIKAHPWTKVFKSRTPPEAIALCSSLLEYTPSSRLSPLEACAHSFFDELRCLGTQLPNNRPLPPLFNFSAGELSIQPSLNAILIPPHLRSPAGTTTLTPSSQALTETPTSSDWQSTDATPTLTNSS
Summary of the method: as §1

IKKα(h) = target: T1, IKKα(h) (Homo sapiens, UniProt O15111)
T1 sequence (O15111 1-745): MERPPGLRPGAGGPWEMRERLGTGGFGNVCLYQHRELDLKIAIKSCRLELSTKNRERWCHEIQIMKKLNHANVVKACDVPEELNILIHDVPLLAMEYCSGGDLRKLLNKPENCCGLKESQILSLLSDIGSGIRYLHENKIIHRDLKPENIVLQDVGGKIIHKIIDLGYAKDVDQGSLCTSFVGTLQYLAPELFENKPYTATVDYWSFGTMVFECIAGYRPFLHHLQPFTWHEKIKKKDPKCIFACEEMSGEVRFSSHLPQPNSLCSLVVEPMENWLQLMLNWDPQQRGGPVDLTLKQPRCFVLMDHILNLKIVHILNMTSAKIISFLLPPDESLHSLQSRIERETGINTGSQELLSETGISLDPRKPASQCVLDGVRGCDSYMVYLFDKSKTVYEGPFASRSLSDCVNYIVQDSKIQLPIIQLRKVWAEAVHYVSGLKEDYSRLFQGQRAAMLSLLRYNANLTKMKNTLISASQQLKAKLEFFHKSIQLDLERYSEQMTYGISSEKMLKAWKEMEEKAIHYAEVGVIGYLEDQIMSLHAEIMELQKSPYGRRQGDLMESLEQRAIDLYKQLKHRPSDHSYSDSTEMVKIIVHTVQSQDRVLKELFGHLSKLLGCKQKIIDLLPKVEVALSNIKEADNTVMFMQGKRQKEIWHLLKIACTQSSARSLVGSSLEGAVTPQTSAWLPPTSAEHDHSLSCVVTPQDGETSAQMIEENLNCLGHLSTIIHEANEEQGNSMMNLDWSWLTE
Summary of the method: as §1

JNK2α2(h) = JNK2α2(h) (Homo sapiens, UniProt P45984)
Sequence of JNK2α2(h) (P45984 whole entry): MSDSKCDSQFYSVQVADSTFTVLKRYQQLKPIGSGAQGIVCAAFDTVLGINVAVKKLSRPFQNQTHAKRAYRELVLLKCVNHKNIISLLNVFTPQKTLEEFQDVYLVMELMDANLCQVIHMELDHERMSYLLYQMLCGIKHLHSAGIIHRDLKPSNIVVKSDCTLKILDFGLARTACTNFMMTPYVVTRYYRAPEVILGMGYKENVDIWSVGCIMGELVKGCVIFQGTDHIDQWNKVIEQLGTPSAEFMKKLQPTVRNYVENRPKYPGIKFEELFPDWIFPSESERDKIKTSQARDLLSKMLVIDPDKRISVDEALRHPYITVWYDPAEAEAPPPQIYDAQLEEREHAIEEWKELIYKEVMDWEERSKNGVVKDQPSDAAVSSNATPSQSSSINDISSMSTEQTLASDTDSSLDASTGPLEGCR
Summary of the method: as §1

Lyn(h) = Lyn(h) (Homo sapiens, UniProt P07948)
Sequence of Lyn(h) (P07948 whole entry): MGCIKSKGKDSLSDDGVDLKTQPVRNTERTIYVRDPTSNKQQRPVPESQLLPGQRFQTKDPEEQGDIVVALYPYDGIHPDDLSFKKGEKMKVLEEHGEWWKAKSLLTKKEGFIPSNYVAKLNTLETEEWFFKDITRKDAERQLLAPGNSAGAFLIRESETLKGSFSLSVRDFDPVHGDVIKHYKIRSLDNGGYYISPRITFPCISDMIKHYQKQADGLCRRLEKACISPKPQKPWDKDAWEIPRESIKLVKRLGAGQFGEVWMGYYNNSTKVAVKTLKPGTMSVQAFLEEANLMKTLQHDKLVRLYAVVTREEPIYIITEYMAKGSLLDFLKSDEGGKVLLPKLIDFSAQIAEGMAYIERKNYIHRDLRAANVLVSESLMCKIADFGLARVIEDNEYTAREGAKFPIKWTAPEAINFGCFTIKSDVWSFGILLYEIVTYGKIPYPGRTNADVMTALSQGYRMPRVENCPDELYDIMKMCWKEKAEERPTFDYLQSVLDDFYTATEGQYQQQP
Summary of the method: as §1

NEK2(h) = target: T2, NEK2(h) (Homo sapiens, UniProt P51955)
T2 sequence (P51955 1-445): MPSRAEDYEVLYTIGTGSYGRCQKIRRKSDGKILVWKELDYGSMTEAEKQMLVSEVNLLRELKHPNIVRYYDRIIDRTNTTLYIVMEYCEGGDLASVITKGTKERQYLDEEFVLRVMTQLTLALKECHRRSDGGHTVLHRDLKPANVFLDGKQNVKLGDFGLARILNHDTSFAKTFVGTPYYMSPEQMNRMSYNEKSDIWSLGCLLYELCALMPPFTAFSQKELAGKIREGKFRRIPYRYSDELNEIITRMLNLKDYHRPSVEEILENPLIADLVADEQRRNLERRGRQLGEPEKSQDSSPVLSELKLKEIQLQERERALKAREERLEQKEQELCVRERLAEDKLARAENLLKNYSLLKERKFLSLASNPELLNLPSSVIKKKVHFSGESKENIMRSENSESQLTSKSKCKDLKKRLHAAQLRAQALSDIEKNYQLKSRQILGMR
Summary of the method: as §1

PKCδ(h) = PKCδ(h) (Homo sapiens, UniProt Q05655)
Sequence of PKCδ(h) (Q05655 whole entry): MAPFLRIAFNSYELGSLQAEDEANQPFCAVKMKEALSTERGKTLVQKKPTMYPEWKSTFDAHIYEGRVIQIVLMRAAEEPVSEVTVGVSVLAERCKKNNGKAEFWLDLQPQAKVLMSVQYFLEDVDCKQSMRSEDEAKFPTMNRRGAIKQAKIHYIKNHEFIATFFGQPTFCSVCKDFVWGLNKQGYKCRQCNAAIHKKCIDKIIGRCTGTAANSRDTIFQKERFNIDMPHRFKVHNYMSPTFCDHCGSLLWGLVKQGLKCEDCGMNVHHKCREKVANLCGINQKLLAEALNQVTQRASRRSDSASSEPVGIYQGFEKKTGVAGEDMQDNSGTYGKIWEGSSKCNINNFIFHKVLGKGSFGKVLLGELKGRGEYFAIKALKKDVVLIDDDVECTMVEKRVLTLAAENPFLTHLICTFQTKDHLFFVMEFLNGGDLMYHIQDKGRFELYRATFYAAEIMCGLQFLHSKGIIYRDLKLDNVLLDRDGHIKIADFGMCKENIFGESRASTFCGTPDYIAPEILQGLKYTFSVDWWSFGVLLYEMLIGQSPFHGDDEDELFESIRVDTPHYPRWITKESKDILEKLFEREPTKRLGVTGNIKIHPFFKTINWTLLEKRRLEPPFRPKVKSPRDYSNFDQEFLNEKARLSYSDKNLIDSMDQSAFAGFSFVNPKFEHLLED
Summary of the method: as §1

PRAK(h) = target: T3, PRAK(h) (Homo sapiens, UniProt Q8IW41)
T3 sequence (Q8IW41 1-473): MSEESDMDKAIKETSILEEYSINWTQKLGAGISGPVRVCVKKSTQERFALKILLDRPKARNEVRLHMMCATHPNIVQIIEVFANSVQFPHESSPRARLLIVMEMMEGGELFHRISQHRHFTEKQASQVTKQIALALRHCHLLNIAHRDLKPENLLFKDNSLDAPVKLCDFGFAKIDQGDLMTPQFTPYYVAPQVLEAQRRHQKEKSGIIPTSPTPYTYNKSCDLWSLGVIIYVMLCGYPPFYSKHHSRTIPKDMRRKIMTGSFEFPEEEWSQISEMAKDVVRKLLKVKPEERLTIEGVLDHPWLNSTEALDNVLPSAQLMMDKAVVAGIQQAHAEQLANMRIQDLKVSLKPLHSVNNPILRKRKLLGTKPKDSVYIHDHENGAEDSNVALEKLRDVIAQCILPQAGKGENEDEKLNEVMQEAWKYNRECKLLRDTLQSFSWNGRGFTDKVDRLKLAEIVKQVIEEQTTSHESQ
Summary of the method: as §1

PRK2(h) = PRK2(h) (Homo sapiens, UniProt Q16513)
Summary of the method: as §1

Rsk2(h) = Rsk2(h) (Homo sapiens, UniProt P51812)
Sequence of Rsk2(h) (P51812 whole entry): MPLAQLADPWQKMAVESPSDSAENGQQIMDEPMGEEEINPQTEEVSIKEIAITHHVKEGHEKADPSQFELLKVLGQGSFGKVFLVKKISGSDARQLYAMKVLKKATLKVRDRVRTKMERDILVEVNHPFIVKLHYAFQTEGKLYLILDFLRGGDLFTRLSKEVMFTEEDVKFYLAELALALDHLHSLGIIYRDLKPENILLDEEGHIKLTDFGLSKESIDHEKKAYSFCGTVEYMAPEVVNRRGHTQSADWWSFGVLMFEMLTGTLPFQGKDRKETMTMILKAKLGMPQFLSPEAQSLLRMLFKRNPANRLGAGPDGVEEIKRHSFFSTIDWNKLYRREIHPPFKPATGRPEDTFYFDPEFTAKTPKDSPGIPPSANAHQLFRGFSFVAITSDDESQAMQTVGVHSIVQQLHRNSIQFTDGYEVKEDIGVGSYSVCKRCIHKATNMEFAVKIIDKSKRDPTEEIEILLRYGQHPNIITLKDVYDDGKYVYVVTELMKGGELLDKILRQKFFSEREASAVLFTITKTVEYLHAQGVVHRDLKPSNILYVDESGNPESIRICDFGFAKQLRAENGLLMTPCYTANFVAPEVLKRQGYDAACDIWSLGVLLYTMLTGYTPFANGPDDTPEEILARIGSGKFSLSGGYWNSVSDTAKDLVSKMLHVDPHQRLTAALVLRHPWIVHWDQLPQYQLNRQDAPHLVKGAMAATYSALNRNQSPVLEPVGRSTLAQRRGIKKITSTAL
Summary of the method: as §1

TrkB(h) = TrkB(h) (Homo sapiens, UniProt Q16620)
Summary of the method: as §1

Sequence of ALK(h) (Q9UM73 19-1620): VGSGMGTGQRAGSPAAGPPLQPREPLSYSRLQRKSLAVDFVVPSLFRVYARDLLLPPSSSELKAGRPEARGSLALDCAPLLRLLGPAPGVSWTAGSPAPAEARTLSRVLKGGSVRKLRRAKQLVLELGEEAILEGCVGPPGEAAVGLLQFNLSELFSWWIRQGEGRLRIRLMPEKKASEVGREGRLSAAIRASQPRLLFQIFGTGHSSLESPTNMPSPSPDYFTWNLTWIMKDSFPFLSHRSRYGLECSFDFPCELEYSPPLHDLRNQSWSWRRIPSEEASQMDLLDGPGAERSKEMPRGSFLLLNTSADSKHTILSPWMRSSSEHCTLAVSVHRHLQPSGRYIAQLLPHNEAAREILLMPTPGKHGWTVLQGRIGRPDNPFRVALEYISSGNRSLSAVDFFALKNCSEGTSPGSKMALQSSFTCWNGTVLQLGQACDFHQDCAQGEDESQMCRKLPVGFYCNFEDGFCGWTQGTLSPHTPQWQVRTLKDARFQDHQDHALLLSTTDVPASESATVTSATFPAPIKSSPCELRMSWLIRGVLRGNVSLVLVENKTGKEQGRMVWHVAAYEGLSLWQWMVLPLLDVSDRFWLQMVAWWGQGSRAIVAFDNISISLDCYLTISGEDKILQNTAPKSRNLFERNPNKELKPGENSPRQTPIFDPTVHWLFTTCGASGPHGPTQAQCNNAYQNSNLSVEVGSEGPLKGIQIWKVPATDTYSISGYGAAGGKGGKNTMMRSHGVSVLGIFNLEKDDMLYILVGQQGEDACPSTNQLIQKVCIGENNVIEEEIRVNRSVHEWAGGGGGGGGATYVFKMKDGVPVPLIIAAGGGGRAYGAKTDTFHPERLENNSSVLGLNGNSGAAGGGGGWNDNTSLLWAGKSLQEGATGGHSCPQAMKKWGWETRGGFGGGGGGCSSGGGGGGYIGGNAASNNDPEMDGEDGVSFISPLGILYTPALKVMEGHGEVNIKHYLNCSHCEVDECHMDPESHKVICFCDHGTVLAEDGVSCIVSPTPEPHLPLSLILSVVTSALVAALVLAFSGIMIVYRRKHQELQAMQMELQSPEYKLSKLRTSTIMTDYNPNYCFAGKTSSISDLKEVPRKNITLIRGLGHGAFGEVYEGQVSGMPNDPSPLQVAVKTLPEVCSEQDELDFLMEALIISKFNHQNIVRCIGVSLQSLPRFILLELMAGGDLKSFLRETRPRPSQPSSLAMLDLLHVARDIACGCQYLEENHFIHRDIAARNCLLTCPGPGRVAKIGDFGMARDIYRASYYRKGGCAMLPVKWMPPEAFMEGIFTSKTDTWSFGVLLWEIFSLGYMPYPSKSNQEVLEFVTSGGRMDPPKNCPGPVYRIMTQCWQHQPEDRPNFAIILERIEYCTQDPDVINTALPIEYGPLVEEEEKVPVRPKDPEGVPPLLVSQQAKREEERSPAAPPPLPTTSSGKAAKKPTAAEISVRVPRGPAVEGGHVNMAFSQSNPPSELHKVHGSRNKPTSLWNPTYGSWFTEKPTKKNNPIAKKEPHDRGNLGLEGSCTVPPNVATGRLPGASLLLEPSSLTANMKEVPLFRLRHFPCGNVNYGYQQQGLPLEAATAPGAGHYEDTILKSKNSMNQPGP

SMILES | Activity at Protein Kinase Assays (% of control), ALK(h) (ALK(h)) | Activity at Protein Kinase Assays (% of control), Abl(h) (Abl(h)) | Activity at Protein Kinase Assays (% of control), BTK(h) (BTK(h)) | Activity at Protein Kinase Assays (% of control), Blk(m) (Blk(m)) | Activity at Protein Kinase Assays (% of control), CDK5/p35(h) (CDK5/p35(h)) | Activity at Protein Kinase Assays (% of control), CDK7/cyclinH/MAT1(h) (CDK7/cyclinH/MAT1(h)) | Activity at Protein Kinase Assays (% of control), CHK2(h) (CHK2(h)) | Activity at Protein Kinase Assays (% of control), Fyn(h) (Fyn(h)) | Activity at Protein Kinase Assays (% of control), GSK3α(h) (GSK3α(h)) | Activity at Protein Kinase Assays (% of control), IKKα(h) (IKKα(h)) | Activity at Protein Kinase Assays (% of control), JNK2α2(h) (JNK2α2(h)) | Activity at Protein Kinase Assays (% of control), Lyn(h) (Lyn(h)) | Activity at Protein Kinase Assays (% of control), NEK2(h) (NEK2(h)) | Activity at Protein Kinase Assays (% of control), PKCδ(h) (PKCδ(h)) | Activity at Protein Kinase Assays (% of control), PRAK(h) (PRAK(h)) | Activity at Protein Kinase Assays (% of control), PRK2(h) (PRK2(h)) | Activity at Protein Kinase Assays (% of control), Rsk2(h) (Rsk2(h)) | Activity at Protein Kinase Assays (% of control), TrkB(h) (TrkB(h))
CN(C)c1cc2cc(n1)CCCn1cc(c3ccccc31)C1=C(C(=O)NC1=O)c1cn(c3ccccc13)CCC2 [Cpd 2, 20-(dimethylamino)-4,14,19,26-tetraazaheptacyclo[24.6.1.1^7,14.1^18,22.0^2,6.0^8,13.0^27,32]pentatriaconta-1(33),2(6),7(35),8,10,12,18(34),19,21,27,29,31-dodecaene-3,5-dione] | 55 % of control | 98 % of control | 106 % of control | 70 % of control | 105 % of control | 108 % of control | 94 % of control | 106 % of control | 3 % of control | 133 % of control | 106 % of control | 76 % of control | 102 % of control | 100 % of control | 96 % of control | 113 % of control | 10 % of control | 98 % of control
CN(C)c1nc2ccc1CCCCn1cc(c3ccccc31)C1=C(C(=O)NC1=O)c1cn(c3ccccc13)CCC2 [Cpd 1, 31-(dimethylamino)-5,15,25,32-tetraazaheptacyclo[28.2.2.1^5,12.1^18,25.0^6,11.0^13,17.0^19,24]hexatriaconta-1(32),6,8,10,12(36),13(17),18(35),19,21,23,30,33-dodecaene-14,16-dione] | 103 % of control | 105 % of control | 105 % of control | 109 % of control | 99 % of control | 89 % of control | 91 % of control | 103 % of control | 4 % of control | 92 % of control | 96 % of control | 107 % of control | 104 % of control | 73 % of control | 88 % of control | 106 % of control | 32 % of control | 
O=C1NC(=O)C2=C1c1cn(c3ccccc13)CCCc1ccc(c(N3CCCC3)n1)CCCn1cc2c2ccccc21 [Cpd 7, 31-pyrrolidin-1-yl-5,15,25,30-tetraazaheptacyclo[27.2.2.1^5,12.1^18,25.0^6,11.0^13,17.0^19,24]pentatriaconta-1(31),6,8,10,12(35),13(17),18(34),19,21,23,29,32-dodecaene-14,16-dione] | 74 % of control | 108 % of control | 104 % of control | 91 % of control | 104 % of control | 111 % of control | 91 % of control | 103 % of control | 9 % of control | 121 % of control | 110 % of control | 78 % of control | 99 % of control | 91 % of control | 102 % of control | 126 % of control | 63 % of control | 106 % of control
O=C1NC(=O)C2=C1c1cn(c3ccccc13)CCCc1cc(nc(N3CCCC3)c1)CCCn1cc2c2ccccc21 [Cpd 6, 20-pyrrolidin-1-yl-4,14,19,26-tetraazaheptacyclo[24.6.1.1^7,14.1^18,22.0^2,6.0^8,13.0^27,32]pentatriaconta-1(33),2(6),7(35),8,10,12,18(34),19,21,27,29,31-dodecaene-3,5-dione] | 58 % of control | 107 % of control | 106 % of control | 74 % of control | 99 % of control | 107 % of control | 84 % of control | 106 % of control | 4 % of control | 132 % of control | 114 % of control | 87 % of control | 105 % of control | 104 % of control | 101 % of control | 110 % of control | 12 % of control | 105 % of control
